Measured values published in patent publication US4694069A, “Kibdelosporangium aridum SK&F-AAD-609” (SmithKline Beckman Corporation, priority 1985, dated 1987).
In brackets after ≈: the same amount, converted by molar mass. Where two headings read alike, the source gives them in different places.

Legend:
Clostridium difficile = assay: In vitro MIC, standard microtiter assay; assay type: cell-based; details: Clostridioides difficile; Table A; read-out: MIC
Description: (§1) In vitro minimum inhibitory concentrations (MIC) of the AAD-609 complex and of Factors A, B, CC2 and D, using standard microtiter assay procedures, against a number of microorganisms are reported in Table A, which follows.

Escherichia coli 12140 = assay: In vitro MIC, standard microtiter assay; assay type: cell-based; details: Escherichia coli, 12140; Table A; read-out: MIC
Description: as §1

S. epidermidis 2265 = assay: In vitro MIC, standard microtiter assay; assay type: cell-based; details: Staphylococcus epidermidis, 2265; Table A; read-out: MIC
Description: as §1

S. epidermidis 2479 = assay: In vitro MIC, standard microtiter assay; assay type: cell-based
Description: as §1

S. epidermidis 2683 = assay: In vitro MIC, standard microtiter assay; assay type: cell-based; details: Staphylococcus epidermidis, 2683; Table A; read-out: MIC
Description: as §1

[1] = test system: S. epidermidis 651 (methicillin resistant strain); assay: In vitro MIC, standard microtiter assay; assay type: cell-based; details: methicillin resistant strain
Description: as §1

[2] = test system: Salmonella gallinarum BC-595; assay: In vitro MIC, standard microtiter assay; assay type: cell-based; details: Salmonella enterica, GALLINARUM; Table A; read-out: MIC
Description: as §1

[3] = test system: Staphylococcus aureus HH127; assay: In vitro MIC, standard microtiter assay; assay type: cell-based
Description: as §1

[4] = test system: Streptococcus faecalis 657; assay: In vitro MIC, standard microtiter assay; assay type: cell-based; details: Enterococcus faecalis, 657; Table A; read-out: MIC
Description: as §1

S. aureus 209P = assay: In vitro MIC, standard microtiter assay; assay type: cell-based, Staphylococcus aureus; details: Staphylococcus aureus, 209P; Table A; read-out: MIC
Description: as §1

S. aureus 674 = assay: In vitro MIC, standard microtiter assay; assay type: cell-based, Staphylococcus aureus; details: Staphylococcus aureus, 674; Table A; read-out: MIC
Description: as §1

S. aureus 675 = assay: In vitro MIC, standard microtiter assay; assay type: cell-based, Staphylococcus aureus; details: Staphylococcus aureus, 675; Table A; read-out: MIC
Description: as §1

[5] = test system: S. aureus 910 (methicillin resistant strain); assay: In vitro MIC, standard microtiter assay; assay type: cell-based, Staphylococcus aureus; details: Staphylococcus aureus; Table A; methicillin resistant strain; read-out: MIC
Description: as §1

S. faecalis 34358 = assay: In vitro MIC, standard microtiter assay; assay type: cell-based, Streptococcus faecalis
Description: as §1

[6] = test system: S. aureus 2620 (methicillin resistant strain); assay: MIC; assay type: cell-based; details: Staphylococcus aureus; Table B; methicillin resistant strain; read-out: MIC
Description: as §1

[7] = test system: rumen fermentation (strained rumen fluid); assay: Rumen in vitro model; set-up: species or system steer; details: for AAN (alpha amino nitrogen) / AMO (ammonia nitrogen) / LYS (lysine): 6 h; for % PR (percent propionate) / ACE (acetate) / BUT (butyrate) / ETOH (ethanol) / IBU (isobutyrate) / IVA (isovalerate) / PRO (propionate) / TOTAL (total volatile fatty acids) / VAL: 24 h
Procedure: The AAD-609 antibiotics were characterized in a rumen in vitro model to assess their potential as feed additives for ruminants. […] Specifically, strained rumen fluid (10 ml) obtained from a fistulated steer receiving a roughage ration, was mixed with 10 ml of nutrient broth (20 mg casein hydrolysate, 100 mg maltose, 15 mg urea, 400 mg solka floc (cellulose), 100 mg cellobiose and 100 mg starch) and with a selected growth promotant and incubated at 39° C., with oscillation, for 24 hours. […] Measurement of AMO, LYS and AAN was done with a sample taken from the incubation flask after 6 hours.

[8] = test system: mixed intestinal microflora (cecum fluid); assay: Swine in vitro model; details: one level, up to 166.67 ppm; 4-5 h
Procedure: A swine in vitro model was used to characterize AAD-609 antibiotics as potential feed additives in swine and poultry. Mixed intestinal microflora were obtained from ileally-cannulated pigs. Virginiamycin, carbadox, AAD-216 and its components, and AAD-609 Complex (containing less than 5% AAD-216 antibiotics) were tested at one level. […] Glucose (GLU) was spared from microbial degradation. Volatile fatty acids (TOTAL) were the major end-product of microbial metabolism while lactic acid production were reduced. […] Since AAD-609 and AAD-216 give similar in vitro results, it is expected that AAD-609 has similar growth-promoting activity in monogastric animals. Also, the in vitro activity of AAD-609 is similar to the activity previously observed with bacitracin in this model.
The swine in vitro model was carried out by incubating 1.5 ml of cecum fluid, from a swine fed normal rations, mixed with 1.5 ml of a nutrient broth (3 mg casein hydrolysate, 30 mg maltose, 1.25 mg urea, 0.5 mg lysine, and 30 mg cellobiose) and with up to 166.67 parts per million of a selected growth promotant at 39° C., with oscillation, for about 4-5 hours. Results, percentage of control, are reported in the following table in which all abbreviations are as above except that LLA means L-lactate and ETOH means ethanol.

Pharmacokinetics in mice = details: mice
[9] = pKa by potentiometric titration; details: 30:70 acetonitrile:water, apparent values, AAD-216A averaged previous results
[10] = 30:70 acetonitrile:water
[11] = comparators, source not given; cited from earlier work
[12] = Staphylococcus epidermidis, 2479, Table A, read-out: MIC
[13] = Staphylococcus epidermidis, Table A, read-out: MIC
[14] = Staphylococcus aureus, HH127, Table A, read-out: MIC
[15] = Enterococcus faecalis, 34358, Table A, read-out: MIC

## CCCCCCCCCC(=O)NC1C(Oc2c3cc4cc2Oc2c(Cl)cc(cc2Cl)C(O)C2NC(=O)C(NC(=O)C4NC(=O)C4NC(=O)C(NC(=O)C(NC)c5ccc(O)c(c5)Oc5cc(O)c(Cl)c4c5)C(O)c4ccc(c(Cl)c4)O3)c3ccc(O)c(c3)-c3c(OC4OC(CO)C(O)C(O)C4O)cc(O)cc3C(C(=O)O)NC2=O)OC(C(=O)O)C(O)C1O (stereo not drawn) [AAD-216 A]
Clostridium difficile
  MIC: 0.25 mg/L (≈ 0.14 µM)
Escherichia coli 12140
  MIC: > 100 mg/L
S. epidermidis 2265
  MIC: 50 mg/L (≈ 27.9 µM)
S. epidermidis 2479; [12]
  MIC: 25 mg/L (≈ 14 µM)
S. epidermidis 2479; Table B
  MIC: 25 mg/L (≈ 14 µM)
S. epidermidis 2683
  MIC: 50 mg/L (≈ 27.9 µM)
[1]; [13]
  MIC: 100 mg/L (≈ 55.9 µM)
[1]; Table B
  MIC: 100 mg/L (≈ 55.9 µM)
[2]
  MIC: > 100 mg/L
[3]; [14]
  MIC: 3.1 mg/L (≈ 1.73 µM)
[3]; Table B
  MIC: 3.1 mg/L (≈ 1.73 µM)
[4]
  MIC: 0.8 mg/L (≈ 0.447 µM)
S. aureus 209P
  MIC: 0.8 mg/L (≈ 0.447 µM)
S. aureus 674
  MIC: 3.1 mg/L (≈ 1.73 µM)
S. aureus 675
  MIC: 12.5 mg/L (≈ 6.99 µM)
[5]
  MIC: 3.1 mg/L (≈ 1.73 µM)
S. faecalis 34358; [15]
  MIC: 0.4 mg/L (≈ 0.224 µM)
S. faecalis 34358; Table B
  MIC: 0.4 mg/L (≈ 0.224 µM)
[6]
  MIC: 4 mg/L (≈ 2.24 µM)
[7]; 0.50 ppm
  AAN (alpha amino nitrogen): 76 % of control
  AMO (ammonia nitrogen): 102 % of control
  LYS (lysine): 108 % of control
  % PR (percent propionate): 106 % of control
  ACE (acetate): 96 % of control
  BUT (butyrate): 100 % of control
  ETOH (ethanol): 0 % of control
  IBU (isobutyrate): 125 % of control
  IVA (isovalerate): 124 % of control
  PRO (propionate): 107 % of control
  TOTAL (total volatile fatty acids): 101 % of control
[7]; 5.00 ppm
  AAN (alpha amino nitrogen): 153 % of control
  AMO (ammonia nitrogen): 101 % of control
  LYS (lysine): 144 % of control
  % PR (percent propionate): 148 % of control
  ACE (acetate): 105 % of control
  BUT (butyrate): 81 % of control
  ETOH (ethanol): 0 % of control
  IBU (isobutyrate): 75 % of control
  IVA (isovalerate): 48 % of control
  PRO (propionate): 153 % of control
  TOTAL (total volatile fatty acids): 103 % of control
  VAL: 56 % of control
[7]; 50.00 ppm
  AAN (alpha amino nitrogen): 195 % of control
  AMO (ammonia nitrogen): 109 % of control
  LYS (lysine): 168 % of control
  % PR (percent propionate): 140 % of control
  ACE (acetate): 93 % of control
  BUT (butyrate): 87 % of control
  ETOH (ethanol): 0 % of control
  IBU (isobutyrate): 112 % of control
  IVA (isovalerate): 98 % of control
  PRO (propionate): 138 % of control
  TOTAL (total volatile fatty acids): 98 % of control
  VAL: 26 % of control
[8]
  % PR (percent propionate): 117 % of control
  ACE (acetate): 200 % of control
  BUT (butyrate): 147 % of control
  ETOH (ethanol): 167 % of control
  GLU (glucose): 180 % of control
  IBU (isobutyrate): 0 % of control
  IVA (isovalerate): 0 % of control
  LLA (L-lactate): 2 % of control
  LYS (lysine): 35 % of control
  PRO (propionate): 276 % of control
  TOTAL (total volatile fatty acids): 236 % of control
  VAL: 0 % of control
Pharmacokinetics in mice
  Elimination half-life: 3.77 h
  Maximum serum concentration: 121 µg/mL
[9]
  pKa (A) carboxyl on aglycone: 3.0
  pKa (B) carboxyl on side chain: 4.9
  pKa (C) amino group on aglycone: 7.4
[9]; first phenolic OH
  pKa (D) phenolic OH: 8.4
[9]; second phenolic OH
  pKa (D) phenolic OH: 10.0
[9]; third phenolic OH
  pKa (D) phenolic OH: 10.3

## CNC1C(=O)NC2C(=O)NC(C(=O)NC3C(=O)NC4C(=O)NC(C(=O)NC(C(=O)O)c5cc(O)cc(OC6OC(CO)C(O)C(O)C6O)c5-c5cc4ccc5O)C(O)c4cc(Cl)c(c(Cl)c4)Oc4cc3cc(c4OC3OC(CO)C(O)C(O)C3NC(=O)CCCCCCCC(C)C)Oc3ccc(cc3Cl)C2O)c2cc(cc(O)c2Cl)Oc2cc1ccc2O (stereo not drawn) [AAD-609 B]
Clostridium difficile
  MIC: 0.5 mg/L (≈ 0.279 µM)
Escherichia coli 12140
  MIC: > 100 mg/L
S. epidermidis 2265
  MIC: 25 mg/L (≈ 14 µM)
S. epidermidis 2479; [12]
  MIC: 12.5 mg/L (≈ 6.99 µM)
S. epidermidis 2479; Table B
  MIC: 12.5 mg/L (≈ 6.99 µM)
S. epidermidis 2683
  MIC: 25 mg/L (≈ 14 µM)
[1]; [13]
  MIC: 50 mg/L (≈ 27.9 µM)
[1]; Table B
  MIC: 50 mg/L (≈ 27.9 µM)
[2]
  MIC: > 100 mg/L
[3]; [14]
  MIC: 1.6 mg/L (≈ 0.894 µM)
[3]; Table B
  MIC: 1.6 mg/L (≈ 0.894 µM)
[4]
  MIC: 0.2 mg/L (≈ 0.112 µM)
S. aureus 209P
  MIC: 0.8 mg/L (≈ 0.447 µM)
S. aureus 674
  MIC: 0.8 mg/L (≈ 0.447 µM)
S. aureus 675
  MIC: 6.3 mg/L (≈ 3.52 µM)
[5]
  MIC: 1.6 mg/L (≈ 0.894 µM)
S. faecalis 34358; [15]
  MIC: 0.2 mg/L (≈ 0.112 µM)
S. faecalis 34358; Table B
  MIC: 0.2 mg/L (≈ 0.112 µM)
[6]
  MIC: 2 mg/L (≈ 1.12 µM)
[10]
  pKa (A) carboxyl on aglycone: 3.5
  pKa (C) amino group on aglycone: 7.1

## ristocetin
[11]
  Isoelectric point: 8.4
